# Source: patent US20210199658A1, “DETECTION OF LIPASE ACTIVITY IN HONEY BEES” (The United States of America, as Represented by the …, priority 2019, published 2021)
# Experiments:
# [1] = tested on: honey bees; assay: Time course of lipase activity (RFU) in honey bees challenged with imidacloprid; type: in vivo, Apis mellifera
# Protocol: Healthy honey bees were challenged in a cup-cage environment with either 5 ppb or 50 ppb of the neonicotinoid imidacloprid. The lipase activity levels were measured during a 50 minute time course, as taught herein.
# To determine if it is possible to detect a difference between healthy bees and DWV-infected bees using the EnzChek lipase substrate and the buffers taught herein, a time course assay was performed using a set amount of EnzChek lipase substrate and a fixed amount of extracted pupae. […] In this figure, the relative fluorescence intensity (RFU) measured was plotted against time. Using linear regression, a significant difference in slopes was observable between individuals from DWV-infected hives, and individuals from healthy hives. The slope obtained for DWV-infected individuals was about 13.8 higher than the slope obtained for healthy individuals.
# Healthy seven and fourteen-day-old emerging adult honey bees were obtained from field colonies and were challenged with either 5 ppb or 50 ppb of the neonicotinoid imidacloprid. Same-aged bees were collected from unchallenged colonies acted as controls. The lipase activity levels were measured during a 30-minute time course, as in Example 3. […] Statistical significance was determined using pair-wise Kaplan Meier linear regression (P<0.01).
# [2] = tested on: honey bees; assay: Total lipid content of imidacloprid-challenged bees, vanillin assay; type: in vivo, Apis mellifera
# Protocol: The total lipid content on bees challenged with either 5 ppb or 50 ppb imidacloprid was measured using the vanillin assay, performed as in Example 4. The measured lipid levels (in mg/mL) were plotted, and the results are shown on FIG. 10. The total lipid content for bees treated with 5 ppb imidacloprid (P<0.01) or 50 ppb imidacloprid (P<0.05) was approximately 3-fold lower than the total lipid content measured in control bees.
# To determine if the lipase activity measured in healthy and DWV-infected hives correlated with the measured lipid levels, the vanillin assay (Foray, V., et al., 2012, “A handbook for uncovering the complete energetic budget in insects: the van Handel's method (1985) revisited,” Physiol. Entomol. 37: 295-302) was used to measure the lipid levels in the bees. Briefly, vanillin reagent was prepared by mixing vanillin (V1104; Sigma-Aldrich, St. Louis, Mo., USA) with 68% ortho-phosphoric acid, reaching a final concentration of 1.2 g/L. For the assay, 100 μL of homogenized pupae in PBS was transferred into a borosilicate microplate well and heated at 90° C. until complete solvent evaporation. Ten microliters of 98% sulphuric acid was then added to each well, and the microplate was incubated at 90° C. for 2 minutes in a water bath. […] The plate was homogenized, incubated at room temperature for 15 minutes and its absorbance was measured spectrophotometrically at 525 nm.
compound,measurement,setting,value
"O=[N+]([O-])NC1=NCCN1Cc1ccc(Cl)nc1 [imidacloprid, 1-(6-chloro-3-pyridylmethyl)-N-nitroimidazolidin-2-ylideneamine]",lipase activity levels (slope of RFU against time) compared with control bees,[1]; bees challenged with 5 ppb imidacloprid,similar
same,lipase activity levels (RFU against time) compared with control bees,"[1]; bees challenged with 50 ppb imidacloprid, linear regression P<0.01",significantly higher
same,"total lipid content, fold lower than control bees","[2]; bees treated with 5 ppb imidacloprid, P<0.01",approximately 3 fold
same,"total lipid content, fold lower than control bees","[2]; bees treated with 50 ppb imidacloprid, P<0.05",approximately 3 fold
